# From paper PMC11354745, “Discovery of Novel Amino Acids (Analogues)-Substituted Thiophene[3,2-d]pyrimidine Derivatives as Potent HIV-1 Non-Nucleoside Reverse Transcriptase Inhibitors: Design, Synthesis, and Biological Evaluation” (International Journal of Molecular Sciences, 2024)
# Assays:
# [1] = Cytotoxicity in mock-infected MT-4 cells (MTT method); assay type: cell-based; settings: human, CC50
# Protocol: (§1) The antiviral potential and cytotoxic effects of the target compounds were assessed using the MTT assay in MT-4 cells, following established protocols. The HIV-1 (IIIB) strain, single mutant strains (L100I, K103N, Y181C, Y188L and E138K), double mutant strains (F227L + V106A and K103N + Y181C) and MT-4 cells were provided by the Rega Institute of Medicine at the University of Leuven, Belgium. These viral strains were propagated in MT-4 cells. The MT-4 cells were cultured in RPMI-1640 medium supplemented with 20 mM HEPES buffer (Life Technologies, Grand Island, NY, USA), 10% (v/v) heat-inactivated fetal calf serum (FCS), 2 mM L-glutamine, 0.1% sodium bicarbonate, and 20 μg/mL gentamicin. Cultures were maintained at 37 °C in a 5% CO2 atmosphere. The specific experimental procedures are detailed below.
# (§2) Initially, concentrated solutions of the test compounds were prepared at 10-fold the final desired concentration and added to triplicate wells in 25 µL aliquots to assess their impacts on both mock and HIV-infected MT-4 cells. Using a Biomek 3000 robot, these were diluted in a 96-well flat-bottomed microplate by mixing with medium, creating a series of 5-fold steps down in concentration. Each test included control groups of untreated infected and mock-infected cells to establish baselines for comparison. We introduced HIV-1 strains, both wild-type (IIIB) and drug-resistant variants harboring mutations L100I, K103N, Y181C, Y188L, E138K and F227L + V106A and the double mutant K103N + Y181C (RES056), at concentrations of 100–300 CCID50, into their respective wells. These strains served to mimic both typical and resistant infections. Additionally, mock-infected wells received an equal volume of culture medium to assess the compounds’ impacts on uninfected cells, thereby determining cytotoxicity. MT-4 cells in the exponential growth phase were pelleted by centrifugation at 1000 rpm for 5 min, after which the supernatant was removed. The cells were resuspended to a density of 6 × 10^5 cells/mL, and 50 µL of this suspension was added to each well. Post-infection, on the fifth day, cell viability in both mock and infected conditions was measured via the MTT assay using a spectrophotometer. The CC50 was identified as the concentration of the compound that caused a 50% reduction in the viability of the mock-infected cells, indicating cytotoxicity. Conversely, the EC50 represented the concentration that provided 50% protection against viral cytopathic effects in infected cells, signifying antiviral potency.
# [2] = system: HIV-1 double-mutant strain F227L+V106A; assay: Anti-HIV activity in MT-4 cells (MTT method), F227L+V106A; assay type: cell-based; settings: Human immunodeficiency virus 1, MT4, read-out: EC50 F227L/V106A
# Source text: (§3) All the target compounds were first evaluated for their antiviral activity against HIV-1 wild-type (WT) strain (IIIB) and the double-mutant strain K103N+Y181C (RES056) in the MT-4 cell line, using the MTT method. The potent inhibitors were selected to assess their efficacy against other strains resistant to NNRTIs, including L100I, K103N, Y181C, Y188L, E138K and the double-mutant strain F227L+V106A. The approved drugs NVP, EFV and ETR were selected as reference drugs. The biological evaluation results of the test compounds, presented as EC50 (anti-HIV potency), CC50 (cytotoxicity) and SI (selectivity index, CC50/EC50 ratio), are summarized in Table 1 and Table 2.
# as §1, §2
# [3] = system: HIV-1 Y188L mutant strain; assay: Anti-HIV activity in MT-4 cells (MTT method), Y188L; assay type: cell-based; settings: Human immunodeficiency virus 1, MT4, read-out: EC50 Y188L
# Source text: as §3, §1, §2
# [4] = system: HIV-1 E138K mutant strain; assay: Anti-HIV activity in MT-4 cells (MTT method), E138K; assay type: cell-based; settings: Human immunodeficiency virus 1, MT4, read-out: EC50 E138K
# Source text: as §3, §1, §2
# [5] = system: HIV-1 wild-type (WT) strain (IIIB); assay: Anti-HIV activity in MT-4 cells (MTT method), HIV-1 IIIB; assay type: cell-based; settings: for EC50: Human immunodeficiency virus 1, IIIB, MT4, read-out: EC50 IIIB; for SI IIIB: selectivity index, ratio CC50/EC50, IIIB
# Protocol: (§4) All the target compounds were first evaluated for their antiviral activity against HIV-1 wild-type (WT) strain (IIIB) and the double-mutant strain K103N+Y181C (RES056) in the MT-4 cell line, using the MTT method.
# (§5) The antiviral potential and cytotoxic effects of the target compounds were assessed using the MTT assay in MT-4 cells, following established protocols. The HIV-1 (IIIB) strain, single mutant strains (L100I, K103N, Y181C, Y188L and E138K), double mutant strains (F227L + V106A and K103N + Y181C) and MT-4 cells were provided by the Rega Institute of Medicine at the University of Leuven, Belgium. These viral strains were propagated in MT-4 cells. […] The specific experimental procedures are detailed below.
# as §2, with “We introduced HIV-1 strains, both wild-type (IIIB) and drug-resistant variants harboring mutations L100I, K103N, Y181C, Y188L, E138K and F227L + V106A and the double mutant K103N + Y181C (RES056), at concentrations of 100–300 CCID50, into their respective wells.” left out, “spectrophotometer.” for “spectrophotometer. The CC50 was identified as the concentration of the compound that caused a 50% reduction in the viability of the mock-infected cells, indicating cytotoxicity. Conversely, the EC50 represented the concentration that provided 50% protection against viral cytopathic effects in infected cells, signifying antiviral potency.”
# [6] = system: HIV-1 double-mutant strain K103N+Y181C (RES056); assay: microbe, parasite or virus in culture; assay type: cell-based; settings: for EC50: Human immunodeficiency virus 1, MT4, read-out: EC50 RES056; for SI RES056: selectivity index, ratio CC50/EC50, RES056
# Protocol: as §4, §5
# as §2, with “We introduced HIV-1 strains, both wild-type (IIIB) and drug-resistant variants harboring mutations L100I, K103N, Y181C, Y188L, E138K and F227L + V106A and the double mutant K103N + Y181C (RES056), at concentrations of 100–300 CCID50, into their respective wells.” left out, “spectrophotometer.” for “spectrophotometer. The CC50 was identified as the concentration of the compound that caused a 50% reduction in the viability of the mock-infected cells, indicating cytotoxicity. Conversely, the EC50 represented the concentration that provided 50% protection against viral cytopathic effects in infected cells, signifying antiviral potency.”
# [7] = system: HIV-1 K103N mutant strain; assay: Anti-HIV activity in MT-4 cells (MTT method), K103N; assay type: cell-based; settings: Human immunodeficiency virus 1, MT4, read-out: EC50 K103N
# Source text: as §3, §1, §2
# [8] = system: HIV-1 Y181C mutant strain; assay: Anti-HIV activity in MT-4 cells (MTT method), Y181C; assay type: cell-based; settings: Human immunodeficiency virus 1, MT4, read-out: EC50 Y181C
# Source text: as §3, §1, §2
# [9] = system: HIV-1 L100I mutant strain; assay: Anti-HIV activity in MT-4 cells (MTT method), L100I; assay type: cell-based; settings: Human immunodeficiency virus 1, MT4, read-out: EC50 L100I
# Source text: as §3, §1, §2
# WT HIV-1 RT = target: T1, WT HIV-1 RT (Human immunodeficiency virus type 1 group M subtype B, UniProt P03366); assay: HIV-1 RT inhibition assay (Roche kit, ELISA); assay type: biochemical
# T1 construct: viral nucleotides (dNTPs) and the HIV-1 RT enzyme in an incubation buffer; purchased Roche
# Source text: An assay kit for HIV-1 reverse transcriptase (RT) from Roche was utilized to assess RT inhibition. The kit provided all necessary components for the RT reaction, and the enzyme-linked immunosorbent assay (ELISA) methodology for the inhibition assay was executed according to the kit’s instructions. […] Unbound dNTPs were washed away, and an anti-[…] (DIG)-POD working solution was introduced. […] Excess anti-DIG-POD was removed, and a peroxidase substrate (ABTS) solution was applied to the MTPs. […] The percentage of the inhibitory activity of the RT inhibitors was calculated by formula, as given below:
# % Inhibition = [O.D. value with RT but without inhibitors − O.D. value with RT and inhibitors]/[O.D. value with RT […] − O.D. value without RT and inhibitors].
Compound,CC50 at 5 days [1],EC50 [2],EC50 [3],EC50 [4],EC50 [5],EC50 [6],EC50 [7],EC50 [8],melting point,SI IIIB [5],SI RES056 [6],EC50 [9],IC50 (WT HIV-1 RT)
"Cc1cc(C#N)cc(C)c1Oc1nc(Nc2ccc(C#N)cc2)nc(N)c1Br [ETR, etravirine, reference compound]",> 4610 nM,9 ± 4 nM,21 ± 8 nM,9 ± 4 nM,3 ± 1 nM,40 ± 11 nM,3 ± 1 nM,15 ± 5 nM,,,,,
Cc1cc(C#N)cc(C)c1Oc1nc(Nc2ccc(NC(=O)[C@@H](N)C(C)C)cc2)nc2ccsc12 [5i],6540 ± 1340 nM,3030 ± 1760 nM,6910 ± 944 nM,247 ± 107 nM,42 ± 8 nM,≥ 6620 nM,45 ± 10 nM,> 6540 nM,184 to 187 °C,157,≤1,1200 ± 218 nM,1350 ± 148 nM
Cc1cc(C#N)cc(C)c1Oc1nc(Nc2ccc(NC(=O)C3CC(O)CN3)cc2)nc2ccsc12 (centres unmarked) [5l],26800 ± 1070 nM,2190 ± 45 nM,2740 ± 103 nM,314 ± 95 nM,59 ± 10 nM,> 26800 nM,72 ± 18 nM,2600 ± 225 nM,,451,<1,1480 ± 545 nM,1710 ± 298 nM
Cc1cc(C#N)cc(C)c1Oc1nc(Nc2ccc(NC(=O)C3CC(O)CN3C(=O)OC(C)(C)C)cc2)nc2ccsc12 (centres unmarked) [5p],22500 ± 391 nM,,,,2580 ± 520 nM,,,,,9,,,
Cc1cc(C#N)cc(C)c1Oc1nc(Nc2ccc(NC(=O)C(N)Cc3c[nH]c4ccccc34)cc2)nc2ccsc12 (centres unmarked) [5b],22400 ± 560 nM,,,,89 ± 43 nM,> 22400 nM,,,224 to 227 °C,250,<1,,
Cc1cc(C#N)cc(C)c1Oc1nc(Nc2ccc(NC(=O)[C@H](Cc3ccccc3)NC(=O)OC(C)(C)C)cc2)nc2ccsc12 [5d],> 197000 nM,,,,771 ± 236 nM,> 197000 nM,,,220 to 222 °C,>256,,,
Cc1cc(C#N)cc(C)c1Oc1nc(Nc2ccc(NC(=O)[C@H](Cc3cn(C(=O)OC(C)(C)C)cn3)NC(=O)OC(C)(C)C)cc2)nc2ccsc12 [5c],19600 ± 720 nM,,,,672 ± 648 nM,> 19600 nM,,,236 to 238 °C,29,<1,,
Cc1cc(C#N)cc(C)c1Oc1nc(Nc2ccc(NC(=O)[C@H](N)CC(C)C)cc2)nc2ccsc12 [5n],24300 ± 4280 nM,2030 ± 1180 nM,2110 ± 288 nM,231 ± 154 nM,62 ± 19 nM,5500 ± 1360 nM,131 ± 4 nM,2160 ± 57 nM,,391,4,2120 ± 455 nM,2390 ± 86 nM
